Source: patent US12201626B2, “Bifunctional compositions for the treatment of cancer” (ARMACEUTICA, INC., priority 2018, dated 2025)
Like-named read-outs stand apart in the source and are kept apart here. Where a SMILES comes first, the peptide text is derived from it. The star is where a group is joined. Cbz = O=C(OCc1ccccc1)*

Experiments:
MDA-MB-231 cells = assay: Phosphatidylserine externalization, annexin V-FITC/PI flow cytometry; assay type: cell-based, human; conditions: positive control, 24 h
Protocol: (§1) To determine whether cell death induced by PND was occurring through apoptosis or necrosis, MDA-MB-231 and HL-60 cells were stained with annexin V-FITC and PI and monitored via flow cytometry. Cells were seeded in 24-well plates at a density of 100,000 for adherent MDA-MB-231 and 200,000 HL-60 cells in 1 ml of culture media. After overnight incubation, cells were treated with PND, and incubated for an additional 24 h. For MDA-MB-231 cells, unattached cells were harvested in an ice-cold tube, while adhered cells were detached by using HyQtase (Thermo Fisher) and incubated for around 5 min at 37° C. Both unattached and detached cells harvested from each individual well were washed with ice-cold PBS and centrifuged at 260×g for 5 min. HL-60 were centrifuged directly after the incubation period as they grow in suspension. Cells were then stained with a mixture of annexin V-FITC and PI in 100 μl of binding buffer and incubated on ice in the dark for 15 minutes, following the manufacturer's instructions (Beckman Coulter). Lastly, the cells were resuspended by the addition of 400 μl of ice-cold binding buffer and analysed by flow cytometry (Cytomics FC500; Beckman Coulter). For this series of experiments, cells treated with PBS, as solvent control; treated with H2O2, as a positive control of cytotoxicity; and untreated were included and processed in parallel. For each sample, 10,000 events/cells were collected and analysed using CXP software (Beckman Coulter). Both the experimental samples and their controls were processed similarly and assessed in triplicate. The sum of both early and late stages of apoptosis was calculated to obtain the total percentage of apoptotic cells.

HL-60 cells = assay: as above; assay type: cell-based, human; conditions: positive control, 24 h
Protocol: as §1

[1] = system: MDA-MB-231 breast cancer line; assay: cells; assay type: cell-based, human
Protocol: PND was added to cultures of the MDA-MB-231 breast cancer line 24 hours after the cells were treated with a selection of known commercial chemotherapeutic drugs, before the cells were analyzed for cell death. Each of the drugs are known to have serious side-effects at the does commonly administered for the treatment of cancer. The dose of the chemotherapeutic drugs was reduced to one half, one fourth, one eighth, and one sixteenth of the initial dose; while the dose of PND was kept the same. The effect of these combinational therapies was measured by the concentration of each compound needed to be cytotoxic to at least 50 percent of cancer cells (CC50).

[2] = system: plasmid dsDNA (pCMV-dR8.91); assay: DNA mobility-shift assay (agarose gel); assay type: binding; parameters: DNA mobility shift: unit of the concentration uncertain
Protocol: Typically, an experimental compound intercalating or binding to double stranded (ds) DNA will increase the molecular mass resulting from forming complexes, decreasing its electrophoretic mobility in an agarose gel, as compared with untreated dsDNA. To explore the potential interaction between PND and dsDNA, a DNA mobility-shift assay was conducted. Each reaction mixture was of 10 μl total volume in PBS pH 7.4. Both PND (Sigma-Aldrich) and quinacrine (Sigma-Aldrich) were tested with three individual concentrations of 1 μM, 0.5 μM or 0.25 μM, respectively. To each reaction mixture, 100 ng of plasmid dsDNA (pCMV-dR8.91; Addgene, Cambridge, MA) was added and the mixture was then incubated for 30 min at 37° C. and stopped by adding 2 μl of 6× gel loading buffer and placed on ice. The potential binding interaction between both PND and quinacrine with dsDNA were analyzed by using 1% (w/v) agarose-gel electrophoresis dissolved in TAE buffer (0.04 M Tris base, 0.04 M acetate and 0.001 M EDTA) pH 8.0. To stain the dsDNA complexes, Ethidium bromide was added to the agarose gel throughout the electrophoresis process at a concentration of 0.5 μg/ml. DNA migration was visualized by utilizing a gel documentation system and pictures were captured by using a UV-light transilluminator (Alpha Innotech, San Leandro, CA). The well-known DNA intercalator fluorescent compound, propidium iodide (PI), was included as positive controls at 1 μg per reaction. As a control, untreated plasmid DNA was included to determine its normal electrophoretic mobility in the gel.

[3] = Homo sapiens, MDA-MB-231, read-out: initial dose (CC50)

SMILES: OO [H2O2, hydrogen peroxide]
- mode of cytotoxic effect (apoptosis or necrosis) (MDA-MB-231 cells): apoptosis
- mode of cytotoxic effect (apoptosis or necrosis) (HL-60 cells): necrosis

SMILES: CC(C)C[C@@H](C=O)NC(=O)[C@H](CC(C)C)NC(=O)[C@H](CC(C)C)NC(=O)OCc1ccccc1 [MG132] (Cbz-Leu-Leu-Leu-aldehyde)
- CC50 [1, 3]: 500 nM

SMILES: CC[N+](C)(CC)CCC[n+]1c(-c2ccccc2)c2cc(N)ccc2c2ccc(N)cc21.[I-].[I-] [PI, propidium iodide]
- DNA mobility shift ([2]; positive control, 1 μg per reaction): provoked retardation of the DNA mobility

SMILES: CC(C)C[C@H](NC(=O)[C@H](Cc1ccccc1)NC(=O)c1cnccn1)B(O)O [bortezomib]
- CC50 [1, 3]: 10 nM

SMILES: N.N.[Cl][Pt][Cl] [cisplatin]
- CC50 [1]: 95400 nM

SMILES: Nc1ccn([C@@H]2O[C@H](CO)[C@@H](O)C2(F)F)c(=O)n1 [gemcitabin]
- CC50 [1, 3]: 440 nM

SMILES: CCN(CC)CCCC(C)Nc1c2ccc(Cl)cc2nc2ccc(OC)cc12 (stereo not shown) [quinacrine]
- DNA mobility shift ([2]; 0.5 and 0.25 mM, 100 ng plasmid DNA): clear retardation mobility of the DNA
- DNA mobility shift ([2]; 1 (unit uncertain), 100 ng plasmid DNA, 30 min 37° C.): maximum retardation of DNA mobility
- DNA degradation ([2]; fragments smaller than free supercoiled DNA): did not exhibit any DNA degradation activity
